Test results published in ChEMBL document CHEMBL4673353, “Switching a Xanthine Oxidase Inhibitor to a Dual-Target Antagonist of P2Y and P2Y as an Oral Antiplatelet Agent with a Wider Therapeutic Window in Rats than Ticagrelor” (J Med Chem, 2020).
pIC50: −log10 of the molar value. Active and inactive are the calls of the source. The calls are words filed in the database; no cut-off is given here.

How the values were obtained:
[1] = Stability of compound in rabbit plasma assessed as compound degradation at 10 uM incubated up to 45 mins by HPLC analysis; format: ADME, cell-free, Oryctolagus cuniculus; conditions: 0.75 h
P2Y purinoceptor 12 = P2Y purinoceptor 12 (Homo sapiens, UniProt Q9H244); test: Agonist activity at P2Y12 in human whole blood assessed as decrease in PGE1-induced VASP phosphorylation at 100 to 200 uM measured after 10 mins by immunostaining based flow cytometric analysis; format: tissue-based; conditions: dose 100-200 µM
P2Y purinoceptor 12, sequence (Q9H244 whole entry): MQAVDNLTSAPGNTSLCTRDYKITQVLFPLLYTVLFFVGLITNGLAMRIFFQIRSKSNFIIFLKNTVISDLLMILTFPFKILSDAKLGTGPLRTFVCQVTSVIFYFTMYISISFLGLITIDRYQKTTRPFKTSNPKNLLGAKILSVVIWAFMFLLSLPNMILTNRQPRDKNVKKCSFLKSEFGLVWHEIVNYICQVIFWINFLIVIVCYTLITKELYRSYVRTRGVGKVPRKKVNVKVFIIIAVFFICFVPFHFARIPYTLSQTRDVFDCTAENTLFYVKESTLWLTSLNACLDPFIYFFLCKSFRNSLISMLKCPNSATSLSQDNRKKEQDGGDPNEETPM

[2] = Tmax in male Sprague-Dawley rat at 10 mg/kg, iv administered as single dose by LC-MS analysis; format: ADME, organism-based; conditions: in vivo
[3] = Antagonist activity at P2Y1 in rabbit platelet-rich plasma assessed as inhibition of ADP-induced increase in intracellular Ca2+ concentration preincubated for 5 mins followed by ADP addition and measured for 3 mins by fluo4 dye-based fluorescence assay; format: cell-free; conditions: Oryctolagus cuniculus
Cytochrome P450 2D6 = Cytochrome P450 2D6 (Homo sapiens, UniProt P10635); test: Inhibition of CYP2D6 in human liver microsomes using dextromethorphan as substrate preincubated for 5 mins followed by NADPH generating system addition and measured after 120 mins by LC-MS/MS; format: ADME
Cytochrome P450 2D6, sequence (P10635 whole entry): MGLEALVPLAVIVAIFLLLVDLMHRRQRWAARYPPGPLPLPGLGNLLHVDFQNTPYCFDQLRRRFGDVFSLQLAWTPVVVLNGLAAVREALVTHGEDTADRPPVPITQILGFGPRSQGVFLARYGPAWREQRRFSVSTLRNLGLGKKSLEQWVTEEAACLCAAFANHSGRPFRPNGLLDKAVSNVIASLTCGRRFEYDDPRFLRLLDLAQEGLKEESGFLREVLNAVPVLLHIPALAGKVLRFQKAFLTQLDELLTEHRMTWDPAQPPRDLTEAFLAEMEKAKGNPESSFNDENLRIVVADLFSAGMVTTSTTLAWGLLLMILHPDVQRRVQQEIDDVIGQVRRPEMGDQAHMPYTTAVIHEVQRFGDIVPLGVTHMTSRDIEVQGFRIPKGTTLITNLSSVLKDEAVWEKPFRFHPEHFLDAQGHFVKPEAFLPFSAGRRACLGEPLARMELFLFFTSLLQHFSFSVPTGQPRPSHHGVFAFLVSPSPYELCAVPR

[4] = Acute toxicity in Kunming mouse assessed as increase in body weight at 2000 mg/kg, ig administered as single dose monitored every day up to14 days; format: organism-based; conditions: in vivo, po, 336 h, time 14 day
[5] = Oral bioavailability in male Sprague-Dawley rat at 10 mg/kg administered as single dose by LC-MS analysis; format: ADME, organism-based; conditions: in vivo
[6] = Toxicity in Sprague-Dawley rat model of tail-snip bleeding assessed as bleeding time at 10 mg/kg, po administered via gavage as single dose measured within 2 hrs post tail snip (reference value: 17.69 min); format: organism-based; conditions: in vivo
[7] = Metabolic stability of compound in human liver microsomes assessed as intrinsic clearance per mg protein at 0.2 uM in presence of NADPH measured up to 90 mins by LC-MS/MS analysis; format: ADME, Microsome; conditions: 1.5 h
[8] = Prodrug conversion in male Sprague-Dawley rat assessed as 1-[(4-Cyanobenzyl)oxy]-2-(3-cyanophenyl)-4-methyl-1H-imidazole-5-carboxylic acid formation at 10 mg/kg, po measured at 10 mins by LC-MS analysis; format: ADME, organism-based; conditions: in vivo
[9] = Acute toxicity in Kunming mouse assessed as behavioral abnormalities at 2000 mg/kg, ig administered as single dose monitored every day up to14 days; format: organism-based; conditions: in vivo, po, 336 h, time 14 day

Row | Stabilty [1] | Activity (P2Y purinoceptor 12) | Tmax [2] [min] | pIC50 [3] | pIC50 (Cytochrome P450 2D6) | Compound | Activity [4] | bioavailability [5] [%] | Time [6] [min] | CLH [7] [mL/min] | Drug metabolism [8] | Activity [9]
1 | Stable | inactive | 8.4 | 5.59 | < 5.00 | Cc1nc(-c2cccc(C#N)c2)n(OCc2ccc(C#N)cc2)c1C(=O)O |  |  |  |  |  | 
2 |  |  |  |  |  | CCOC(=O)c1c(C)nc(-c2cccc(C#N)c2)n1OCc1ccc(C#N)cc1 | Non-Toxic | 32.4 | 33.94 | 0.011 | Metabolite_Detected | Non-Toxic
